Publication PMC8230303, “Coumarin-Based Triapine Derivatives and Their Copper(II) Complexes: Synthesis, Cytotoxicity and mR2 RNR Inhibition Activity” (Biomolecules, 2021)
Read-outs that look alike come from different tables or passages of the source.

Legend:
[1] = parameters: method as in doi:10.1002/ejic.200901174; settings: copper(II) complex of the named ligand; cited from earlier work
COLO-320 cells = assay: Inhibition of cell viability, colorimetric MTT assay; assay type: cell-based, human; settings: for IC50: Homo sapiens, COLO 320, MTT assay, 72 h exposure, mean ± SD
Procedure: (§1) Human breast adenocarcinoma cells MDA-MB-231, sensitive COLO-205 and multidrug resistant COLO-320 colorectal adenocarcinoma cells and normal human lung fibroblasts MRC-5 were obtained from ATCC. COLO-205 and COLO-320 cells were cultured in RPMI-1640 medium containing 10% foetal bovine serum, MRC-5 cells were cultured in EMEM medium containing 10% foetal bovine serum. MDA-MB-231 cells were cultured in DMEM/high glucose medium containing 10% FBS. Adherent MDA-MB-231 cells were grown in Falcon tissue culture 75 cm^2 flasks and all other cells were grown in tissue culture 25 cm^2 flasks (BD Biosciences, Singapore). All cell lines were grown at 37 °C in a humidified atmosphere of 95% air and 5% CO2. The stock solutions of copper(II) complexes were prepared in DMSO.
(§2) The cytotoxicity of the compounds was determined by colorimetric MTT assay. The cells were harvested from culture flasks by trypsinisation and seeded into Cellstar 96-well microculture plates at the seeding density of 6000 cells per well (6 × 10^4 cells/mL, MDA-MB-231) or 10,000 cells per well (1× 10^5 cells/mL cells/mL, COLO-205, COLO-320 and MRC-5). The cells were allowed to resume exponential growth for 24 h, and subsequently were exposed to drugs at different concentrations in media for 72 h. The drugs were diluted in complete medium at the desired concentration and added to each well (100 µL) and serially diluted to other wells. After exposure for 72 h, the media were replaced with MTT in media (5 mg/mL, 100 µL) and incubated for additional 50 min. Subsequently, the media were aspirated and the purple formazan crystals formed in viable cells were dissolved in DMSO (100 µL). Optical densities were measured at 570 nm using the BioTek H1 Synergy (BioTek, Singapore) microplate reader. The quantity of viable cells was expressed in terms of treated/control (T/C) values in comparison to untreated control cells, and 50% inhibitory concentrations (IC50) were calculated from concentration-effect curves by interpolation. Evaluation was based on at least three independent experiments, each comprising six replicates per concentration level.

COLO-205 cells = assay: as above; assay type: cell-based; settings: Homo sapiens, 72 h exposure, mean ± SD
Procedure: as §1, §2

MRC-5 cells = assay: as above; assay type: cell-based; settings: Homo sapiens, MRC5, healthy lung fibroblasts, 72 h exposure, mean ± SD
Procedure: as §1, §2

MDA-MB-231 cells [2] = assay: as above; assay type: cell-based; settings: Homo sapiens, 72 h exposure, mean ± SD
Procedure: as §1, §2

mouse R2 RNR protein = biological target: T1, mouse R2 RNR protein (Mus musculus, UniProt P11157); parameters: method as in PMID 32961653; settings: in 3 min; cited from earlier work
T1 construct: mR2 protein was expressed, purified, and iron-reconstituted as described previously; made in house
T1 sequence (P11157 1-390): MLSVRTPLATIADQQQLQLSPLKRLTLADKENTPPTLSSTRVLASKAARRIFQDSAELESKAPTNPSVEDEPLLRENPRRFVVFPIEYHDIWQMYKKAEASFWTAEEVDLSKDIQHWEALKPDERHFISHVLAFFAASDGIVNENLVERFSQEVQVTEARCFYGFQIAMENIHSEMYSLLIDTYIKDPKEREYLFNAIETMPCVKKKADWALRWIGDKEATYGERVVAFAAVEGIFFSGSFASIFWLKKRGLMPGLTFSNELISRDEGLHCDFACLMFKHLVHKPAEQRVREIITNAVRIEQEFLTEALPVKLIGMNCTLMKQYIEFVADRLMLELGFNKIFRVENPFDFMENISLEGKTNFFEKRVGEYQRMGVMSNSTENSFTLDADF

MDA-MB-231 cells [3] = system: MDA-MB-231 cells; parameters: method as in PMID 30384010; settings: cited from earlier work

Compound | logβ[CuL]+ [1] | IC50 (COLO-320 cells) | IC50 (COLO-205 cells) | IC50 (MRC-5 cells) | SF (COLO-320 cells; IC50(MRC-5)/IC50(COLO-320)) | IC50 (MDA-MB-231 cells [2]) | tyrosyl radical reduction (mouse R2 RNR protein) | IC50 (MDA-MB-231 cells [3])
CN(C)C(=S)NN=Cc1ncccc1N [APTSC, 3-aminopyridine-2-carboxaldehyde 4N-dimethylthiosemicarbazone] | 13.95(2) | – | – | – | – | – | – | –
COc1cccc2c1C(=O)c1c(O)c3c(c(O)c1C2=O)C[C@@](O)(C(=O)CO)C[C@@H]3O[C@H]1C[C@H](N)[C@H](O)[C@H](C)O1 [Doxorubicin, reference compound] | – | 3.1 µM | 3.3 µM | 5.2 µM | – | – | – | –
CN(C)C(=S)NN=Cc1cc(COc2ccc3cc(C(=O)N4CCN(Cc5ccnc(C=NNC(=S)N(C)C)c5)CC4)c(=O)oc3c2)ccn1 [H2L^4, 2-((4-((4-(7-((2-((2-(dimethylcarbamothioyl)hydrazineylidene)methyl)pyridin-4-yl)methoxy)-2-oxo-2H-chromene-3-carbonyl)piperazin-1-yl)methyl)pyridin-2-yl)methylene)-N,N-dimethylhydrazine-1-carbothioamide] | – | 4.6 ± 0.3 µM | 4.4 ± 0.7 µM | 4 ± 0.3 µM | 0.9 | 3 ± 0.3 µM | – | –
CN(C)C(=S)NN=Cc1cc(CN2CCN(C(=O)c3cc4ccc(O)cc4oc3=O)CC2)ccn1 [HL^1, 2-((4-((4-(7-Hydroxy-2-oxo-2H-chromene-3-carbonyl)piperazin-1-yl)methyl)pyridin-2-yl)methylene)-N,N-dimethylhydrazine-1-carbothioamide] | – | 6.7 ± 0.9 µM | 9.2 ± 0.1 µM | 41 ± 1 µM | – | 4.8 ± 1.3 µM | – | –
O=C(c1cc2ccc(O)cc2oc1=O)N1CCN(Cc2ccnc(C=NNC(=S)Nc3ccccc3)c2)CC1 [HL^2, 2-((4-((4-(7-Hydroxy-2-oxo-2H-chromene-3-carbonyl)piperazin-1-yl)methyl)pyridin-2-yl)methylene)-N-phenylhydrazine-1-carbothioamide] | – | 83 ± 7 µM | 89 ± 6 µM | 54 ± 5 µM | – | 18 ± 4 µM | – | –
Cc1cc(NCNN=Cc2cc(CN3CCN(C(=O)c4cc5ccc(O)cc5oc4=O)CC3)ccn2)cc(C)c1O [HL^3, 7-Hydroxy-3-(4-((2-((2-(((4-hydroxy-3,5-dimethylphenyl)amino)methyl)hydrazineylidene)-methyl)pyridin-4-yl)methyl)piperazine-1-carbonyl)-2H-chromen-2-one] | – | 90 ± 10 µM | 76 ± 8 µM | > 100 µM | – | 11 ± 1 µM | – | –
CN(C)C(=S)NN=Cc1ccccn1 [PTSC, pyridine-2-carboxaldehyde 4N-dimethylthiosemicarbazone] | 13.57(2) | – | – | – | – | – | – | –
NC(=S)NN=Cc1ncccc1N [Triapine, 3-aminopyridine-2-carboxaldehyde thiosemicarbazone] | 13.89(3) | – | – | – | – | – | 100% | 1.5 ± 1.1 µM
